{
  "source": "patent US20060167083A1",
  "about": "“Therapeutic methods and compositions involving isoflav-3-ene and isoflavan structures” (priority 2002, published 2006)",
  "key": {"normal NIH 3T3 cells": {"tested_on": "normal NIH 3T3 cells", "assay": "Viability of normal NIH 3T3 cells in focus formation assay", "assay_type": "cell-based", "conditions": "10 μg/ml, 3 weeks", "experimental": "Focus formation assay: Low passage NIH 3T3 cells were transfected with either human ras gene (Ras) or empty vector (Vect) control^19. Two days later the transfected cells were seeded in 6 well plates. After reaching confluence, the cells were cultured in the vehicle DMSO or De (10 μg/ml final) for 3 weeks with media change every 3-4 days (±De). Foci were scored after staining with 0.5% crystal violet. One experiment of two performed is shown."}, "prostate cancer line PC3": {"tested_on": "prostate cancer line PC3", "assay": "Anti-proliferative effect on PC3", "assay_type": "cell-based", "conditions": "Homo sapiens, PC-3"}, "[1]": {"tested_on": "human cervical carcinoma (HeLa)", "assay": "HeLa cell apoptosis", "assay_type": "cell-based", "conditions": "10 μm"}, "Sphingosine Kinase (SK)": {"tested_on": "Sphingosine Kinase (SK)", "assay": "Sphingosine kinase activity assay in endothelial cells", "assay_type": "cell-based, human", "experimental": "Sphingosine Kinase activity assay: SK activity was measured in vitro by incubating the cytosolic fraction with 10 μM sphingosine-BSA complex and [γ^32P]ATP (1 mM, 0.5 mCi/ml) for 15 minutes at 37° C., as previously described^42. Stimulation was with TNFα (1 ng/ml) (rhTNF-α; R & D Systems, Minneapolis Minn. USA), PMA (100 ng/ml) and IL-1β (100 units/ml) (hrIL-1β; Immunex, Seattle Wa. USA) for 10 minutes. Cells were treated with De or DMSO vehicle as control for 18 hours prior to stimulation."}, "VEGF receptor 2": {"tested_on": "VEGF receptor 2", "assay": "VEGF receptor 2 expression on EC, flow cytometric analysis", "assay_type": "cell-based", "conditions": "after De treatment, data not shown"}, "human topo II [2]": {"biological_target": "T1, human topo II (Homo sapiens, UniProt P11388)", "T1 construct": "purchased Topogen (Columbus, Ohio)", "T1 sequence (P11388 whole entry)": "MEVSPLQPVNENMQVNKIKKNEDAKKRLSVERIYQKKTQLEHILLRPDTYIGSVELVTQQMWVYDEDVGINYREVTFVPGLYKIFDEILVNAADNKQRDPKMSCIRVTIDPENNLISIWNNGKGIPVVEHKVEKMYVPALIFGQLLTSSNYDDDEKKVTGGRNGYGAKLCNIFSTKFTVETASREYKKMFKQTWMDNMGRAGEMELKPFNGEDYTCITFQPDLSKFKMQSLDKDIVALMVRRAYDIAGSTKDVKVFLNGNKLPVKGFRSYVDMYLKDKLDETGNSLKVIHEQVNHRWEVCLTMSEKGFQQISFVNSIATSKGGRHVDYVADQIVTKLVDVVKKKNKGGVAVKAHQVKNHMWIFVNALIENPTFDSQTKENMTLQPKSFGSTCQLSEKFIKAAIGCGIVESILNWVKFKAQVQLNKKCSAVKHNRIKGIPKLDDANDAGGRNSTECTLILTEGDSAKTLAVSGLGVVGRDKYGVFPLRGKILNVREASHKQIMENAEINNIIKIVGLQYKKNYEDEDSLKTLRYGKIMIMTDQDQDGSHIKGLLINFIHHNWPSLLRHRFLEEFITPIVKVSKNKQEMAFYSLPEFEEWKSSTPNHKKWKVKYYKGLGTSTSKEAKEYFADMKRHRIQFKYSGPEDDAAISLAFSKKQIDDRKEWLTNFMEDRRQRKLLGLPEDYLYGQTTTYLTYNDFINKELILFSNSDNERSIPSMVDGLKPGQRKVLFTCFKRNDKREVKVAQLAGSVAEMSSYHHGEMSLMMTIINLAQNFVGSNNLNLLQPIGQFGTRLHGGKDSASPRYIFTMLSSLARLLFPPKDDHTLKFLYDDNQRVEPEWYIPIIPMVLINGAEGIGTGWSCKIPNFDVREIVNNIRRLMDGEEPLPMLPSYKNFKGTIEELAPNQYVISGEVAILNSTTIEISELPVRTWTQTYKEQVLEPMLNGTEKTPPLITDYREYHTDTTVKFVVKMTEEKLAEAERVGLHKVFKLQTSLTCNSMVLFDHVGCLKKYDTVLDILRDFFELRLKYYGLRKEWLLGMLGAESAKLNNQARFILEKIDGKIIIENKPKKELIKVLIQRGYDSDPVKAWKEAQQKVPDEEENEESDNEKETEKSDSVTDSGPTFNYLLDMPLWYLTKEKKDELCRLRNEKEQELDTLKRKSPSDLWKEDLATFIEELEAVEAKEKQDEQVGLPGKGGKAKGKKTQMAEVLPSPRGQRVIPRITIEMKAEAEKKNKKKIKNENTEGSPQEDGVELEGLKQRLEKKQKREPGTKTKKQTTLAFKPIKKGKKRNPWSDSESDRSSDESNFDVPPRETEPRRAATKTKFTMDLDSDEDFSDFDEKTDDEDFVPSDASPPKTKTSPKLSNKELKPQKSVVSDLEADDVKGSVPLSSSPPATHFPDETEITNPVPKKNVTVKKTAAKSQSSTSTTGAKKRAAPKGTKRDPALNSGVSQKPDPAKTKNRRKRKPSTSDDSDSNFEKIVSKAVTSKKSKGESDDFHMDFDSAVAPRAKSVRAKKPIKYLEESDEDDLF", "assay": "Topo II-mediated plasmid linearisation assay", "assay_type": "biochemical", "experimental": "FIG. 3 represents an assay for determining the effect of dehydroequol on double-stranded DNA cleavage. pRYG DNA was incubated with ten units of human topo II (lanes 2-6) in the absence (lane 1) or presence of 10, 30, or 100 μg/ml dehydroequol (lanes 2-4), or 30 μg/ml genistein (lane 5), or 10 μg/ml VP-16 (lane 6). Lane 7, linear pUC8 DNA marker. Double-strand DNA breakage was determined by converting relaxed (REL) or supercoiled (SC) pRYG DNA to the linear (LIN) form.\nA linearisation assay was employed to determine if dehydroequol is a topo II poison. Double-strand breakage results in the appearance of linear DNA. […] This effect, which was evident at 10 μg/ml, peaked at 30 μg/ml.\nTopo II poisons enhance topo II-mediated DNA cleavage and can be identified with the linearisation assay under the reaction conditions provided by the supplier of the enzyme (Topogen, Inc.). Briefly, 20-μl reaction mixtures contained 30 mM Tris-HCl, pH 7.6, 3 mM ATP, 15 mM β-mercaptoethanol, 8 mM MgCl2, 60 mM NaCl, 1 μl of the test agent (or solvent), 0.3 μg of pRYG, and 10 units of human topo II (added last). After a 15-min incubation at 37° C., SDS-proteinase K was added, and following a 15 min incubation at 37° C., samples were extracted with CHCl3-isopropanol and electrophoresis was performed on a 1% agarose gel containing ethidium bromide. Gels were photographed, and photographic negatives were scanned."}, "[3]": {"tested_on": "Human umbilical vein endothelial cells (HUVEC)", "assay": "In vitro capillary tube formation assay in collagen gel", "assay_type": "cell-based", "conditions": "10 μg/ml, PMA and RMACII present", "experimental": "In vitro tube assay: Capillary tube formation in a collagen gel was performed essentially as described by Gamble et al^30,31. Tubes were formed in the presence of the tumour promoter phorbol myristate acetate (PMA) and the anti β1 integrin antibody RMACII. De (10 μg/ml final) was added at the time of plating the cells onto the gel."}, "human topo II [4]": {"biological_target": "T1, human topo II", "assay": "Topo II-mediated P4 unknotting assay", "assay_type": "biochemical", "experimental": "FIG. 1 represents an unknotting assay for determining the effect of dehydroequol on topo II catalytic activity. Substrate P4 DNA was incubated with two units of purified topo II in the absence (lane 1) or presence of 100, 80, 60, 40, 20, and 10 μg/ml dehydroequol (lanes 3-8). Lane 2, 10 μg/ml VP-16 (positive control). Topo II activity was determined by converting knotted P4 DNA (K) to the unknotted (U) form.\nThe stepwise removal of DNA knots (unknotting) requires transient double-strand breakage followed by strand passage and relegation. Type II topoisomerases uniquely catalyse this reaction. […] DNA from a mutant bacteriophage (P4 Virl del1O) is used as a reaction substrate that migrates as a smear (due to the variable number of knots). In the presence of topo II, topological DNA knots are removed, and the reaction product (unknotted DNA) migrates as a single band. Complete inhibition was evident at 100 μg/ml dehydroequol. It was determined from densitometric measurements of the unknotted band that 50% inhibition (IC50) was at about 20 μg/ml dehydroequol.\nTo determine topoisomerase (topo) II catalytic activity, knotted DNA that had been isolated from the tailless capsids of the bacteriophage P4 Virl del1O was used as the substrate. Reaction mixtures contained 50 mM Tris-HCl, pH 8.0, 120 mM KCl, 10 mM MgCl2, 0.5 mM ATP, and 0.5 mM dithiothreitol. The topo II inhibitor was added prior to the addition of 2 units of human topo II. Reactions (20 μl final volume) were initiated by adding 0.6 μg of knotted DNA and carried out at 37° C. for 30 min. […] For the quantitative determination of topo II activity, photographic negatives were densitometrically scanned. Unknotted DNA, migrating as a single band at the top of the gel, was measured in this manner. The concentration of the inhibitor preventing 50% of the substrate (knotted DNA) from being converted into the reaction product (unknotted DNA) was determined from a standard curve. By averaging three to four such experiments, the IC50 values were determined."}, "leukaemic cell line HL60": {"tested_on": "leukaemic cell line HL60", "assay": "Anti-proliferative effect on HL60", "assay_type": "cell-based", "conditions": "Homo sapiens, HL-60"}},
  "note": "“Also recorded” adds a separate entry of the source.",
  "data": [
    {"compound": "Oc1ccc(C2=Cc3ccc(O)cc3OC2)cc1", "note": "[Dehydroequol, 4′,7-dihydroxyisoflav-3-ene]", "values": [
      {"measurement": "viability of normal cells", "setting": "normal NIH 3T3 cells", "result": "still maintaining the viability"},
      {"measurement": "IC50", "setting": "prostate cancer line PC3", "result": 2, "unit": "µg/mL"},
      {"measurement": "apoptosis of HeLa cells", "setting": "[1]", "result": "leading to HeLa cell apoptosis"},
      {"measurement": "SK inhibition compared with N,N-dimethylsphingosine (DMS)", "setting": "Sphingosine Kinase (SK)", "result": "equipotent"},
      {"measurement": "inhibition of SK activity generated by stimulation with IL-1", "setting": "Sphingosine Kinase (SK); dose-dependent, 18 hours pretreatment, IL-1β 100 units/ml 10 minutes", "result": "inhibits"},
      {"measurement": "inhibition of SK activity generated by stimulation with PMA", "setting": "Sphingosine Kinase (SK); dose-dependent, 18 hours pretreatment, PMA 100 ng/ml 10 minutes", "result": "inhibits"},
      {"measurement": "inhibition of SK activity generated by stimulation with TNF", "setting": "Sphingosine Kinase (SK); dose-dependent, 18 hours pretreatment, TNFα 1 ng/ml 10 minutes", "result": "inhibits"},
      {"measurement": "effect on basal levels of SK activity", "setting": "Sphingosine Kinase (SK); unstimulated", "result": "no effect"},
      {"measurement": "level of expression of VEGF receptor 2", "setting": "VEGF receptor 2", "result": "no changes"},
      {"measurement": "concentration producing detectable (comparable) topo II-mediated linear plasmid DNA", "setting": "human topo II [2]", "result": 20, "unit": "µg/mL"},
      {"measurement": "effect on topo II-mediated DNA strand breakage compared with positive controls", "setting": "human topo II [2]; genistein 30 μg/ml, VP-16 10 μg/ml", "result": "much greater than genistein; also recorded: comparable to VP-16"},
      {"measurement": "concentration at which production of linear plasmid DNA peaked", "setting": "human topo II [2]; pRYG DNA, proteinase K/SDS", "result": 30, "unit": "µg/mL"},
      {"measurement": "concentration at which production of linear plasmid DNA was evident", "setting": "human topo II [2]; pRYG DNA, proteinase K/SDS", "result": 10, "unit": "µg/mL"},
      {"measurement": "inhibition of capillary tube formation", "setting": "[3]", "result": "inhibits"},
      {"measurement": "concentration at which complete inhibition of topo II unknotting was evident", "setting": "human topo II [4]", "result": 100, "unit": "µg/mL"},
      {"measurement": "effect on topo II catalytic activity compared with positive control", "setting": "human topo II [4]; VP-16 10 μg/ml as positive control", "result": "comparable to that of VP-16"},
      {"measurement": "IC50", "setting": "human topo II [4]; densitometric measurements of the unknotted band, read-out: 50% inhibition (IC50) of topo II unknotting (converted)", "result": "~83.2", "unit": "µM"},
      {"measurement": "IC50", "setting": "leukaemic cell line HL60", "result": 1.5, "unit": "µg/mL"}
    ]}
  ]
}
